Source: patent US5183824A, “Azole derivatives and antifungal drugs containing the same as an active component” (Kao Corporation, priority 1989, dated 1993)
≈ marks a conversion by molar mass, not a printed value.

How the values were obtained:
[1] = system: T. mentagrophytes (TIMM 1189); assay: Antifungal activities (in vivo), guinea pig skin infection, retro-culture; parameters: species or system Hartley white female guinea pigs; conditions: guinea pigs, 1% test compound in white petrolatum applied once a day for 6 days from fifth day of inoculation
Text: Hartley white female guinea pigs were used in this test. The back hair were depilated to form a round area having a diameter of 2 cm. 1×10^8microconidia of T. mentagrophytes (TIMM 1189) were inoculated therein for infection. From the fifth day of the inoculation, a composition containing 1% test compound (base: white petrolatum) was applied once a day for 6 consecutive days. Thereafter, the animals were left for 1 day, and slaughtered while removing the blood. The suffered skin was taken, cut and subjected to the retro-culture. The negative ratio of the strain was measured.

C. albicans (TIMM 0144) = assay: Direct cell-membrane damaging (potassium ion leakage); assay type: cell-based; conditions: test compound 40 μg/ml, 15 minutes, atomic absorption spectrometry
Protocol: Direct cell-membrane damaging, which is one of the characteristic actions of azole antifungal drugs, was evaluated.
As a test strain, C. albicans (TIMM 0144) was used. Fresh cultures of C. albicans (TIMM 0144) were washed to make a deionized aqueous solution containing the same at a concentration of 1×10^8 /ml. In the presence of a test compound at a concentration of 40 μg/ml, potassium ion leakage concentration was measured 15 minutes after by way of atomic absorption spectrometry to evaluate the direct cell-membrane damaging.

Acute toxicity = conditions: mouse, in vivo, po; dosed orally on mice
Candida sp. = assay: Antifungal activities (in vitro), MIC on Sabouraud's agar medium; assay type: cell-based; conditions: 48 h, 37° C., growth evaluated two days after
Protocol: (§1) A plate of a series of diluted specimen was prepared under steriled conditions using Sabouraud's agar medium (glucose 2%, peptone 1%, agar 1.5%), to which 1 μl of each of the test fungus solutions was inoculated by using a quantitative platinum loop.

Trichophyton sp. = assay: as above; assay type: cell-based; conditions: 168 h, 27° C., growth evaluated seven days after
Protocol: as §1

Row | SMILES | MIC (Candida sp.) [µg/mL] | MIC (Trichophyton sp.) [µg/mL] | Negative ratio (%) [1] [%] | Potassium ion leakage rate (%) (C. albicans (TIMM 0144)) | LD50 (Acute toxicity) [mg/kg]
1 | Clc1ccccc1C(c1ccccc1)(c1ccccc1)n1ccnc1 [Clotrimazole, clotrimazole, reference compound] |  |  | 24 |  | 
2 | CC(C)=CCC/C(C)=C/COC(Cn1ccnc1)c1ccc(Cl)cc1Cl (centres unmarked) [Compound 1, 1-[2-(2,4-dichlorophenyl)-2-((E)-3,7-dimethylocta-2,6-dienyloxy)ethyl]-1H-imidazole] | 40 (≈ 102 µM) | 5 to 10 (≈ 12.7 to 25.4 µM) | 95 | 81 | ≥ 1000
3 | CC(C)=CCC/C(C)=C/CC/C(C)=C/COC(Cn1ccnc1)c1ccc(Cl)cc1Cl (centres unmarked) [Compound 2, 1-[2-(2,4-dichlorophenyl)-2-((E,E)-3,7,11-trimethyldodeca-2,6,10-trienyloxy)ethyl]-1H-imidazole] | > 80 | 40 to 80 (≈ 86.7 to 173 µM) |  | 55 | 
4 | CC(C)=CCC/C(C)=C/COC(Cn1cncn1)c1ccc(Br)cc1 (centres unmarked) [Compound 7, 1-[2-(4-bromophenyl)-2-((E)-3,7-dimethylocta-2,6-dienyloxy)ethyl]-1H-triazole] | > 80 | > 80 |  |  | 
5 | CC(C)=CCC/C(C)=C/CSC(Cn1ccnc1)c1ccc(Cl)cc1Cl (centres unmarked) [Compound 10, 1-[2-(2,4-dichlorophenyl)-2-((E)-3,7-dimethylocta-2,6-dienylthio)ethyl]-1H-imidazole] | > 80 | 20 (≈ 48.8 µM) | 37 | 47 | 
6 | Clc1ccc(COC(Cn2ccnc2)c2ccc(Cl)cc2Cl)c(Cl)c1 (centres unmarked) [Miconazole, miconazole, reference compound] |  |  | 27 |  | 

Continued, in another order:

Row | MIC (Candida sp.) [µg/mL] | MIC (Trichophyton sp.) [µg/mL] | SMILES | Negative ratio (%) [1] [%] | Potassium ion leakage rate (%) (C. albicans (TIMM 0144)) | LD50 (Acute toxicity) [mg/kg]
7 | 20 to 40 (≈ 54.1 to 108 µM) | 0.16 to 5 (≈ 0.433 to 13.5 µM) | CC(C)=CCC/C(C)=C/COC(Cn1ccnc1)c1ccccc1[N+](=O)[O-] (centres unmarked) [Compound 3, 1-[2-((E)-3,7-dimethylocta-2,6-dienyloxy)-2-(2-nitrophenyl)ethyl]-1H-imadazole] |  |  | 
8 | 20 (≈ 51 µM) | 1.25 to 20 (≈ 3.18 to 51 µM) | CC(C)=CCC/C(C)=C/COC(Cn1ccnc1)c1ccccc1C(F)(F)F (centres unmarked) [Compound 4, 1-[2-((E)-3,7-dimethylocta-2,6-dienyloxy)-2-(2-trifluoromethylphenyl)ethyl]-1H-imidazole] |  |  | 
9 | 20 (≈ 61.6 µM) | 5 (≈ 15.4 µM) | CC(C)=CCC/C(C)=C/COC(Cn1ccnc1)c1ccccc1 (centres unmarked) [Compound 5, 1-[2-((E)-3,7-dimethylocta-2,6-dienyloxy)-2-phenylethyl]-1H-imidazole] |  |  | 
10 | 20 to 40 (≈ 50.8 to 102 µM) | 5 to 10 (≈ 12.7 to 25.4 µM) | CC(C)=CCC/C(C)=C\COC(Cn1ccnc1)c1ccc(Cl)cc1Cl (centres unmarked) [Compound 6, 1-[2-(2,4-dichlorophenyl)-2-((Z)-3,7-dimethylocta-2,6-dienyloxy)ethyl]-1H-imidazole] | 89 | 74 | 
11 | 40 (≈ 102 µM) | 10 to 20 (≈ 25.5 to 51 µM) | CC(C)=CCC/C(C)=C/CNC(Cn1ccnc1)c1ccc(Cl)cc1Cl (centres unmarked) [Compound 8, 1-[2-(2,4-dichlorophenyl)-2-((E)-3,7-dimethylocta-2,6-dienylamino)ethyl]-1H-imidazole] | 46 | 65 | 
12 | 40 (≈ 98.4 µM) | 10 to 20 (≈ 24.6 to 49.2 µM) | CC(C)=CCC/C(C)=C/CN(C)C(Cn1ccnc1)c1ccc(Cl)cc1Cl (centres unmarked) [Compound 9, 1-[2-(2,4-dichlorophenyl)-2-{N-((E)-3,7-dimethylocta-2,6-dienyl)-N-methylamino}ethyl]-1H-imidazole] | 34 |  | 
13 | 40 (≈ 98.4 µM) | 5 to 20 (≈ 12.3 to 49.2 µM) | CC(C)=CCC/C(C)=C/CO/N=C(\Cn1ccnc1)c1ccc(Cl)cc1Cl [Compound 11, (Z)-1-(2,4-dichlorophenyl)-2-(1H-imidazole-1-yl)-O-((E)-3,7-dimethylocta-2,6-dienyl) ethanonoxime] |  |  | 
